Experimental data from US20250340565A1, “CD73 INHIBITOR COMPOUNDS” (AdoRx Therapeutics Limited, priority 2022, published 2025).
One block for each compound: values may come before it.

Columns and labels:
[1] = biological target: CD73 activity in U138-MG cells (Homo sapiens (Human), UniProt P21589); assay: U138-MG inhibition assay (inorganic phosphate from AMP, PiColorLock Gold); type: cell-based; conditions: 100 μM AMP, 30 min pre-incubation, 1 hour at 37° C.
Outline: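 Washed U138-MG cells in HEPES-buffered saline (pH 7.4) preincubated 30 min at 37 °C with inhibitor, then given 100 μM AMP (final) for 1 h at 37 °C. Released phosphate in supernatant read by PiColorLock Gold; no-AMP wells define 100% inhibition. IC50 taken as inflection of sigmoidal curve.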

[2] = biological target: human (h)CD73 (amino acids Trp27-Lys547) (Homo sapiens, UniProt P21589); assay: CD73 inhibition assay (Malachite Green phosphate detection); type: biochemical; conditions: 250 pM hCD73, 12.5 μM AMP, 20 min pre-incubation, absorbance 620 nm
Outline: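 250 pM hCD73 (Trp27-Lys547) preincubated 20 min with compound (1% DMSO) in 25 mM Tris pH 7.5, 5 mM MgCl2, 0.002% Tween20. Reaction with 12.5 μM AMP for 20 min at room temperature; phosphate detected by malachite green at 620 nm. Data normalised to no compound (0%) and 10 μM control compound (100%).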

CD73 in whole blood = CD73 in whole blood (Homo sapiens (Human), UniProt P21589); assay: Whole blood AMP Glo assay; type: cell-based; conditions: whole blood of healthy volunteers, 10 μM AMP, 30 min pre-incubation, 15 min at 37° C., levamisole 1.5 mM
Outline: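 Heparinised healthy-donor human whole blood, with 1.5 mM levamisole, preincubated with compound 30 min at 37 °C, then 10 μM AMP added for 15 min at 37 °C (0.6% DMSO). Remaining plasma AMP measured by AMP-Glo luminescence against a standard curve; IC50 from curve inflection point.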

CD73 activity in U138-MG cells, sequence (P21589 27-574): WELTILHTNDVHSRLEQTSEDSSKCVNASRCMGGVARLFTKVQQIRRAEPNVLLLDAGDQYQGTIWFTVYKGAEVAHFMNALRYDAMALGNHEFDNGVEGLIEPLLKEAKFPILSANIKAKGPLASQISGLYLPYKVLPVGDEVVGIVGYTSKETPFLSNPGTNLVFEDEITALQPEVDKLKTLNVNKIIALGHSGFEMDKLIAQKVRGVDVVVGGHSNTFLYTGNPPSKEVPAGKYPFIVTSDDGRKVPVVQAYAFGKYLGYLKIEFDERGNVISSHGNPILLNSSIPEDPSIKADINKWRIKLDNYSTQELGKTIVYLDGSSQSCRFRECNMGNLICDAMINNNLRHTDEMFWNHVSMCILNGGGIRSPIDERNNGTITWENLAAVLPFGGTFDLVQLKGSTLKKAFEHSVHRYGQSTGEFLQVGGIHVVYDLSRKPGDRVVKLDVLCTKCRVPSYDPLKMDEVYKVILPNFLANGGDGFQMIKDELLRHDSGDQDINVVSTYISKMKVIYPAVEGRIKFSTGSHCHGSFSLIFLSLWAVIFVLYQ
CD73 in whole blood, sequence (P21589 27-574): as above

Compound: O=c1[nH]cc(-c2cc3c(N4CCC(OCCN5CCC(C(F)(F)F)CC5)C4)ncnc3o2)c(=O)[nH]1 (stereo not drawn) [Example 21, 5-[4-[3-[2-[4-(Trifluoromethyl)-1-piperidyl]ethoxy]pyrrolidine-1-yl]furo[2,3-d]pyrimidin-6-yl]-1H-pyrimidine-2,4-dione]
- IC50 [1]: 70.8 nM
- IC50 [2]: 100 nM
- IC50 (CD73 in whole blood): 40.2 nM

Compound: O=C(OC1CN(c2ncnc3oc(-c4c[nH]c(=O)[nH]c4=O)cc23)CC1(F)F)N1CCOCC1 (stereo not drawn) [Example 22, [1-[6-(2,4-Dioxo-1H-pyrimidin-5-yl)furo[2,3-d]pyrimidin-4-yl]-4,4-difluoro-pyrrolidin-3-yl]morpholine-4-carboxylate]
- IC50 [1]: 84.5 nM
- IC50 [2]: 136 nM
- IC50 (CD73 in whole blood): 65.5 nM

Compound: Cc1nc(N2CC(C)(C)C(F)(F)C2)c2cn(-c3c[nH]c(=O)[nH]c3=O)nc2n1 [Example 23, 5-[4-(3,3-Difluoro-4,4-dimethyl-pyrrolidin-1-yl)-6-methyl-pyrazolo[3,4-d]pyrimidin-2-yl]-1H-pyrimidine-2,4-dione]
- IC50 [1]: 10.5 nM
- IC50 [2]: 152 nM
- IC50 (CD73 in whole blood): 1.5 nM

Compound: N#Cc1ccc(OC2CCN(c3ncnc4nn(-c5c[nH]c(=O)[nH]c5=O)cc34)C2)nc1 (stereo not drawn) [Example 24, 6-[1-[2-(2,4-Dioxo-1H-pyrimidin-5-yl)pyrazolo[3,4-d]pyrimidin-4-yl]pyrrolidine-3-yl]oxypyridine-3-carbonitrile]
- IC50 [1]: 11.8 nM
- IC50 [2]: 35.5 nM
- IC50 (CD73 in whole blood): 1.4 nM

Compound: CC1(C)CN(c2nccn3nc(-c4c[nH]c(=O)[nH]c4=O)cc23)CC1(F)F [Example 25, 5-[4-(3,3-Difluoro-4,4-dimethyl-pyrrolidin-1-yl)pyrazolo[1,5-a]pyrazin-2-yl]-1H-pyrimidine-2,4-dione]
- IC50 [1]: 38.6 nM
- IC50 [2]: 34.2 nM
- IC50 (CD73 in whole blood): 155 nM

Compound: CC1(C)CN(c2ncc(F)c3nn(-c4c[nH]c(=O)[nH]c4=O)cc23)CC1(F)F [Example 26, 5-[4-(3,3-Difluoro-4,4-dimethyl-pyrrolidin-1-yl)-7-fluoro-pyrazolo[4,3-c]pyridin-2-yl]-1H-pyrimidine-2,4-dione]
- IC50 [1]: 2.9 nM
- IC50 [2]: 55.6 nM
- IC50 (CD73 in whole blood): 16 nM

Compound: CC1(C)CN(c2nccc3nn(-c4c[nH]c(=O)[nH]c4=O)cc23)CC1(F)F [Example 27, 5-[4-(3,3-Difluoro-4,4-dimethyl-pyrrolidin-1-yl)pyrazolo[4,3-c]pyridin-2-yl]-1H-pyrimidine-2,4-dione]
- IC50 [1]: 20 nM
- IC50 [2]: 65 nM
- IC50 (CD73 in whole blood): 16 nM

Compound: CC1(C)CN(c2ncc(C#N)c3nn(-c4c[nH]c(=O)[nH]c4=O)cc23)CC1(F)F [Example 29, 4-(3,3-difluoro-4,4-dimethyl-pyrrolidin-1-yl)-2-(2,4-dioxo-1H-pyrimidin-5-yl)pyrazolo[4,3-c]pyridine-7-carbonitrile]
- IC50 [1]: 8 nM
- IC50 [2]: 52 nM
- IC50 (CD73 in whole blood): 47 nM

Compound: CC1(C)CN(c2ccnc3nn(-c4c[nH]c(=O)[nH]c4=O)cc23)CC1(F)F [Example 30, 5-[4-(3,3-difluoro-4,4-dimethyl-pyrrolidin-1-yl)pyrazolo[3,4-b]pyridine-2-yl]-1H-pyrimidine-2,4-dione]
- IC50 [1]: 12 nM
- IC50 [2]: 115 nM
- IC50 (CD73 in whole blood): 20 nM

Compound: CC1(C)CN(c2cncc3nn(-c4c[nH]c(=O)[nH]c4=O)cc23)CC1(F)F [Example 31, 5-[4-(3,3-difluoro-4,4-dimethyl-pyrrolidin-1-yl)pyrazolo[3,4-c]pyridine-2-yl]-1H-pyrimidine-2,4-dione]
- IC50 [1]: 12.3 nM
- IC50 [2]: 20.8 nM
- IC50 (CD73 in whole blood): 32 nM

Other lines, results leading:

- IC50 [1]: 61.9 nM
- IC50 [2]: 152 nM
- IC50 (CD73 in whole blood): 139 nM
Compound: O=C(OC1CN(c2ncnc3oc(-c4c[nH]c(=O)[nH]c4=O)cc23)CC1(F)F)N1CC2CCC(C1)O2 (stereo not drawn) [Example 22.1, [1-[6-(2,4-Dioxo-1H-pyrimidin-5-yl)furo[2,3-d]pyrimidin-4-yl]-4,4-difluoro-pyrrolidin-3-yl]8-oxa-3-azabicyclo[3.2.1]octane-3-carboxylate]

- IC50 [1]: 38.3 nM
- IC50 [2]: 42.3 nM
- IC50 (CD73 in whole blood): 645 nM
Compound: O=c1[nH]cc(-c2cc3c(N4CC(F)(F)C5(CCC5)C4)nccn3n2)c(=O)[nH]1 [Example 25.1, 5-[4-(8,8-Difluoro-6-azaspiro[3.4]octan-6-yl)pyrazolo[1,5-a]pyrazin-2-yl]-1H-pyrimidine-2,4-dione]

- IC50 [1]: 2.8 nM
- IC50 [2]: 16 nM
- IC50 (CD73 in whole blood): 38 nM
Compound: CC1(C)CN(c2ncc(Cl)n3nc(-c4c[nH]c(=O)[nH]c4=O)cc23)CC1(F)F [Example 25.8, 5-[7-chloro-4-(3,3-difluoro-4,4-dimethyl-pyrrolidin-1-yl)pyrazolo[1,5-a]pyrazin-2-yl]-1H-pyrimidine-2,4-dione]

- IC50 [1]: 22 nM
- IC50 [2]: 58 nM
- IC50 (CD73 in whole blood): 18000 nM
Compound: CC1(C)CN(c2ncc(C(F)(F)F)n3nc(-c4c[nH]c(=O)[nH]c4=O)cc23)CC1(F)F [Example 25.9, 5-[4-(3,3-difluoro-4,4-dimethyl-pyrrolidin-1-yl)-7-(trifluoromethyl)pyrazolo[1,5-a]pyrazin-2-yl]-1H-pyrimidine-2,4-dione]

- IC50 [1]: 5 nM
- IC50 [2]: 22.9 nM
- IC50 (CD73 in whole blood): 37 nM
Compound: O=c1[nH]cc(-n2cc3c(N4CC(F)(F)C5(CCC5)C4)ncc(F)c3n2)c(=O)[nH]1 [Example 26.1, 5-[4-(8,8-difluoro-6-azaspiro[3.4]octan-6-yl)-7-fluoro-pyrazolo[4,3-c]pyridin-2-yl]-1H-pyrimidine-2,4-dione]

- IC50 [1]: 17 nM
- IC50 [2]: 68.2 nM
- IC50 (CD73 in whole blood): 69 nM
Compound: O=c1[nH]cc(-n2cc3c(N4CCC5(COC5)C4)ncc(F)c3n2)c(=O)[nH]1 [Example 26.4, 5-[7-fluoro-4-(2-oxa-7-azaspiro[3.4]octan-7-yl)pyrazolo[4,3-c]pyridin-2-yl]-1H-pyrimidine-2,4-dione]

- IC50 [1]: 14 nM
- IC50 [2]: 46 nM
- IC50 (CD73 in whole blood): 254 nM
Compound: O=c1[nH]cc(-n2cc3c(N4CC(F)(F)C5(CC5)C4)ncc(F)c3n2)c(=O)[nH]1 [Example 26.5, 5-[4-(7,7-difluoro-5-azaspiro[2.4]heptan-5-yl)-7-fluoro-pyrazolo[4,3-c]pyridin-2-yl]-1H-pyrimidine-2,4-dione]

- IC50 [1]: 3.6 nM
- IC50 [2]: 15 nM
- IC50 (CD73 in whole blood): 20 nM
Compound: O=c1[nH]cc(-n2cc3c(N4CC(F)(F)C5(CC5)C4)ncc(Cl)c3n2)c(=O)[nH]1 [Example 28.1, 5-[7-chloro-4-(7,7-difluoro-5-azaspiro[2.4]heptan-5-yl)pyrazolo[4,3-c]pyridin-2-yl]-1H-pyrimidine-2,4-dione]

- IC50 [1]: 1.9 nM
- IC50 [2]: 20 nM
- IC50 (CD73 in whole blood): 26 nM
Compound: O=c1[nH]cc(-n2cc3c(N4CC(F)(F)C5(CCC5)C4)ncc(Cl)c3n2)c(=O)[nH]1 [Example 28.2, 5-[7-chloro-4-(8,8-difluoro-6-azaspiro[3.4]octan-6-yl)pyrazolo[4,3-c]pyridin-2-yl]-1H-pyrimidine-2,4-dione]
